Results taken from US20230167437A1, “COMPOSITIONS FOR TREATING CANCER WITH KRAS MUTATIONS AND USES THEREOF” (Aadigen, LLC, priority 2020, published 2023).

Tested on: pAKT
Assay: Downstream signaling proteins quantified by ELISA on tumors
Assay type: in vivo, mice
Conditions: PANC1 tumors
Experimental: The specificity of gRNA35A5 G12D and gRNA35T3 G12V for their targets in PANC-1 and SW403 tumors cells, have been analyzed. Female nude mice 6-weeks of age were injected with either Human pancreatic carcinoma cell (Panc1-Luc) containing the 35G>A mutation or Human colorectal cancer cells (SW403) containing 35G>T KRAS mutation (20×10^6 cells in 200 μl PBS). A period of 2 weeks was allowed for tumor development before the beginning of the experiments.
Animal were injected on day 1 and day 7. Mice received IV injection of 100 μl ADGN/mRNA complex in 5% glucose. At Day 50, animals were sacrificed and tissues/tumors were harvested. At Day 50 post treatment, level of expression of housekeeping genes; glyceraldehyde-3-phosphate dehydrogenase (GAPDH), HPRT-1 and mitochondrial ATP synthase 6 (mATPsy6) was evaluated by PCR in the tumor, liver, spleen and lung.
We analyzed the level of KRAS G12D or KRAS G12V gene editing by deep sequencing in PANC1 (FIG. 14A) and SW403 (FIG. 14B) tumors, respectively. […] The level of downstream signaling proteins (pAKT and pERK) were quantified by ELISA on PANC1 and SW403 tumors. […] Given that targeting KRAS using Cas9/sgRNA can induce various secondary mutations at or near the target sites, deep sequencing shown similar level of secondary oncogenic mutations (G12D, G12V, G12C, G13D, G12R, G12A, and G12S) in KRAS-mutant cancer cells (SW403/PANC-1) or cells containing wild-type KRAS (HT29) either in vitro or in vivo.

For “AGT TGG AGC TGA TGG CGT (guide AGTTGGAGCTGATGGCGT; chemistry not given here) [gRNA35A5, sgRNA target KRAS G12D mutation (35G>A); PAM AGG]”, the “level of p-AKT” value was “significantly reduced”.
